# Data reported in PMC3992122 (Molecular cancer therapeutics, 2012).
# Tests used:
# [1] = test system: imatinib- and sunitinib-resistant GISTs; conditions: phase II study; cited from earlier work
# imatinib-resistant GIST = conditions: second-line setting; cited from earlier work
# [2] = molecular target: GIST48 cells (KIT V560D + D820A) (Homo sapiens, UniProt P10721, D820A/V560D); conditions: doses as low as 100 nmol/L
# [3] = test system: imatinib- or imatinib/sunitinib-resistant GIST; conditions: sorafenib 400 mg twice daily, cited from earlier work
# GIST patients = GIST patients treated with sorafenib; cited from earlier work
# drug-resistant GIST = conditions: third-line treatment, cited from earlier work
# [4] = test system: GIST after imatinib, sunitinib and nilotinib therapy; conditions: fourth-line, 400 mg twice daily, cited from earlier work
# Chain of GIST48 cells (KIT V560D + D820A) (P10721 26-976 V560D/D820A): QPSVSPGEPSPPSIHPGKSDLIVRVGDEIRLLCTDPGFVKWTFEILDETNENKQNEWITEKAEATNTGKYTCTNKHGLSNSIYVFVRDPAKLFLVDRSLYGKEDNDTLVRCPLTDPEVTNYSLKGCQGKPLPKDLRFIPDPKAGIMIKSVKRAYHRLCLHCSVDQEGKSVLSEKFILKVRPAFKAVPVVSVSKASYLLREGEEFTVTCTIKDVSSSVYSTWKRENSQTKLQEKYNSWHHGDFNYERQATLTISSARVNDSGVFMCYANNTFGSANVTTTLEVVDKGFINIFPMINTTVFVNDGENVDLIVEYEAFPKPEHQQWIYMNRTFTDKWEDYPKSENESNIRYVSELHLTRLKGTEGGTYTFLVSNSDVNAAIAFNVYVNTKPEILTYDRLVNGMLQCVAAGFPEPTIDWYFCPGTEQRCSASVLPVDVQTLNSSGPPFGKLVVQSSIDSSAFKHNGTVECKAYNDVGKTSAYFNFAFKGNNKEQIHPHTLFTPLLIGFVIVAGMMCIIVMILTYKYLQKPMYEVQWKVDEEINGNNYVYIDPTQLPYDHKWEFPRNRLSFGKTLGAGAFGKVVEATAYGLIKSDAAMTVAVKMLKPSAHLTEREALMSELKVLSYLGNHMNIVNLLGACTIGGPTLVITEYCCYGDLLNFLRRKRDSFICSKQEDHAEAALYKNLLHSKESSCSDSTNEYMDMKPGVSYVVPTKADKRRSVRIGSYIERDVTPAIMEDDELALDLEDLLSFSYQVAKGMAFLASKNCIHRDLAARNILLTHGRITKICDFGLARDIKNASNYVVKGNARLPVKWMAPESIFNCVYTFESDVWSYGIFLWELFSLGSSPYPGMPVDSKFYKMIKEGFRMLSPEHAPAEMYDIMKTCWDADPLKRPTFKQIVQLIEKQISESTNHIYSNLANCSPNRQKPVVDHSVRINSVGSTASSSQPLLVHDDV
compound,measurement,setting,value
CNC(=O)c1cc(Oc2ccc(NC(=O)Nc3ccc(Cl)c(C(F)(F)F)c3)c(F)c2)ccn1 [Regorafenib],clinical benefit rate,[1],55%
same,median PFS,[1],10 months
CCN(CC)CCNC(=O)c1c(C)[nH]c(/C=C2\C(=O)Nc3ccc(F)cc32)c1C [Sunitinib],disease control rate,imatinib-resistant GIST,65%
same,median OS,imatinib-resistant GIST,17.2 months
CNC(=O)c1cc(Oc2ccc(NC(=O)Nc3ccc(Cl)c(C(F)(F)F)c3)cc2)ccn1 [Sorafenib],inhibition of KIT phosphorylation,[2],85%
same,disease control rate,[3]; 38 patients,68%
same,hand-foot syndrome (grade 3-4 toxicity),[3],45%
same,median OS,[3],11.6 months
same,patients requiring at least one dose reduction,[3],63%
same,rate of grade 3-4 toxicity,[3],greater than 50%
same,grade 3-4 anemia,GIST patients,7%
same,grade 3-4 elevated liver enzymes or bilirubin,GIST patients,7%
same,grade 3-4 fatigue,GIST patients,5%
same,grade 3-4 hand-foot skin reaction,GIST patients,16%
same,grade 3-4 hypertension,GIST patients,5%
same,median OS,drug-resistant GIST; median follow-up of 7.5 months,had not been reached
same,median PFS,drug-resistant GIST,4.6 months
same,overall disease control rate,drug-resistant GIST,65%
same,overall tumor control rate,[4]; 32 patients,63%
same,median PFS,[4],4.6 months
